pKi: −log10 of the molar value.

One assay addresses Carbonic anhydrase 9 (Homo sapiens, UniProt Q16790). Briefly: Inhibition of human transmembrane carbonic anhydrase 9 by stopped flow CO2 hydration assay.
The target in a further assay is Carbonic anhydrase 1 (Homo sapiens, UniProt P00915). The assay can be described thus: Inhibition of human cytosolic carbonic anhydrase 1 by stopped flow CO2 hydration assay.
Sequence of Carbonic anhydrase 1 (P00915 whole entry): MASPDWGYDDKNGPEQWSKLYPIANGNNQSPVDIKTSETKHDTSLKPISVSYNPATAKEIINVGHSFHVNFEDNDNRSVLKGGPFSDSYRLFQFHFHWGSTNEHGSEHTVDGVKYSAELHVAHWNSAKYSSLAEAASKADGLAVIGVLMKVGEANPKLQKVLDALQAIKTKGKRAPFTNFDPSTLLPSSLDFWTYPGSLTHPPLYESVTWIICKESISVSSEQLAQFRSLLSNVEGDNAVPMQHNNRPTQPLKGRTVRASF

Usually pKi stands for the Ki on a negative log10 scale, so that one unit is a factor of ten. A low value points to a high Ki. On to `NS(=O)(=O)c1ccc(-c2n[nH]c(=S)n2-c2ccc(S(N)(=O)=O)cc2)cc1`, for which the pKi on Carbonic anhydrase 9 is 8.05.
The same measure, in the same setting: with `NS(=O)(=O)c1ccc(-c2nnc3n2N=C(c2ccccc2)CS3)cc1` the figure was 7.68; with `Cc1ccc(C2=Nn3c(nnc3-c3ccc(S(N)(=O)=O)cc3)SC2)cc1`, 7.89.
Consider `NS(=O)(=O)c1ccc(-c2nnc3n2N=C(c2ccc(F)cc2)CS3)cc1`, for which the negative logarithm of the Ki (pKi) at Carbonic anhydrase 9 was 7.60.
On the same count and under the same terms, with `NS(=O)(=O)c1ccc(-c2nnc3n2N=C(c2ccc(Cl)cc2)CS3)cc1` the figure was 7.12; with `NS(=O)(=O)c1ccc(-c2nnc3n2N=C(c2ccc(Br)cc2)CS3)cc1`, 8.43.
On to `NS(=O)(=O)c1ccc(-c2nnc3n2N=C(c2ccc([N+](=O)[O-])cc2)CS3)cc1`, for which the pKi at Carbonic anhydrase 9 is 6.94.
Same read-out and setting: with `NS(=O)(=O)c1ccc(-c2nnc3sc(-c4ccccc4)nn23)cc1` the figure was 6.94.
As for `Cc1ccc(-c2nn3c(-c4ccc(S(N)(=O)=O)cc4)nnc3s2)cc1`, the pKi is 6.45 on Carbonic anhydrase 9 and below 5.00 on Carbonic anhydrase 1.
Taken in the same sequence, the figures for `COc1ccc(-c2nn3c(-c4ccc(S(N)(=O)=O)cc4)nnc3s2)cc1` were 6.37 and below 5.00.
Taken in the same sequence, the figures for `NS(=O)(=O)c1ccc(-c2nnc3sc(-c4ccc(F)cc4)nn23)cc1` were 7.19 and below 5.00.
With `NS(=O)(=O)c1ccc(-c2nnc3sc(-c4ccc(Cl)cc4)nn23)cc1`, the pKi on Carbonic anhydrase 9 was 7.05.
As for `NS(=O)(=O)c1ccc(-c2nnc3sc(-c4ccc(Br)cc4)nn23)cc1`, the pKi on Carbonic anhydrase 9 is 6.98.
Regarding `NS(=O)(=O)c1ccc(-c2nnc3sc(-c4ccc([N+](=O)[O-])cc4)nn23)cc1`, the pKi is 7.39 on Carbonic anhydrase 9 and below 5.00 on Carbonic anhydrase 1.
On Carbonic anhydrase 9, `Cc1ccc(-c2n[nH]c(=S)n2-c2ccc(S(N)(=O)=O)cc2)cc1` had a negative logarithm of the Ki (pKi) of 7.80.
In turn, `NS(=O)(=O)c1ccc(-n2c(-c3ccc(F)cc3)n[nH]c2=S)cc1` gave a pKi on Carbonic anhydrase 9 of 8.55.
Still for that read-out and setting: with `NS(=O)(=O)c1ccc(-n2c(-c3ccc(Cl)cc3)n[nH]c2=S)cc1` the figure was 8.24; with `NS(=O)(=O)c1ccc(-n2c(-c3ccc(Br)cc3)n[nH]c2=S)cc1`, 8.12.
